Values quoted from earlier work in US6355457B1, “Genes for the biosynthesis of epothilones” (Novartis AG, priority 1998, dated 2002).

System: human solid tumors
Details: in vivo

SMILES	activity against human solid tumors
CC(=O)O[C@H]1C(=O)[C@@]2(C)[C@H]([C@H](OC(=O)c3ccccc3)[C@]3(O)C[C@H](OC(=O)[C@H](O)[C@@H](NC(=O)c4ccccc4)c4ccccc4)C(C)=C1C3(C)C)[C@]1(OC(C)=O)CO[C@@H]1C[C@@H]2O [Taxol]	significant activity against various human solid tumors
CC(=O)O[C@@]12CO[C@@H]1C[C@H](O)[C@@]1(C)C(=O)[C@H](O)C3=C(C)[C@@H](OC(=O)[C@H](O)[C@@H](NC(=O)OC(C)(C)C)c4ccccc4)C[C@@](O)([C@@H](OC(=O)c4ccccc4)[C@H]21)C3(C)C [taxotere]	significant activity against various human solid tumors
